Results taken from the supplement of paper PMC10733146.

Key:
Assay in all cases: viability relative to DMSO control (fraction); higher = less drug effect (more viable cells)
Conditions in all cases: 48 h
Pralatrexate = compound: C#CCC(Cc1cnc2nc(N)nc(N)c2n1)c1ccc(C(=O)N[C@@H](CCC(=O)O)C(=O)O)cc1 [Pralatrexate]
Method in brief: (§1)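 Cells were incubated for 48 h at 37 °C and 5% CO2 in RPMI-1640 with penicillin/streptomycin, L-glutamine and human serum, at 4 × 10^4 cells per well in 384-well plates with compounds pre-plated at five concentrations, one well each. These were primary mononuclear tumour cells, fresh or cryopreserved, Ficoll-isolated from blood or bone marrow or obtained from processed lymph node. Viability values are CellTiter-Glo luminescence relative to the median of 16 inner DMSO wells.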

ONO-4059 = compound: CC#CC(=O)N1CC[C@@H](n2c(=O)n(-c3ccc(Oc4ccccc4)cc3)c3c(N)ncnc32)C1 [ONO-4059]
Method in brief: as §1

[1] = compound: CC(C)(C)OC(=O)Nc1ccc(-c2cc(C(=O)NCCCCCCC(=O)NO)no2)cc1
Method in brief: as §1

Vemurafenib = compound: CCCS(=O)(=O)Nc1ccc(F)c(C(=O)c2c[nH]c3ncc(-c4ccc(Cl)cc4)cc23)c1F [Vemurafenib]
Method in brief: as §1

ERK5-IN-1 = compound: CCOc1cc(C(=O)N2CCC(N3CCN(C)CC3)CC2)ccc1Nc1ncc2c(n1)N(C1CCCC1)c1ccccc1C(=O)N2C [ERK5-IN-1]
Method in brief: as §1

BI6727 = compound: CC[C@@H]1C(=O)N(C)c2cnc(Nc3ccc(C(=O)N[C@H]4CC[C@H](N5CCN(CC6CC6)CC5)CC4)cc3OC)nc2N1C(C)C [BI6727]
Method in brief: as §1

Vincristine = compound: CC[C@]1(O)C[C@H]2CN(CCc3c([nH]c4ccccc34)[C@@](C(=O)OC)(c3cc4c(cc3OC)N(C=O)[C@H]3[C@@](O)(C(=O)OC)[C@H](OC(C)=O)[C@]5(CC)C=CCN6CC[C@]43[C@@H]65)C2)C1 [Vincristine]
Method in brief: as §1

Ribociclib = compound: CN(C)C(=O)c1cc2cnc(Nc3ccc(N4CCNCC4)cn3)nc2n1C1CCCC1 [Ribociclib]
Method in brief: as §1

Obatoclax mesylate = compound: COC1=CC(c2cc3ccccc3[nH]2)=N/C1=C\c1[nH]c(C)cc1C [Obatoclax mesylate]
Method in brief: as §1

MLN-120B = compound: COc1c(Cl)cc2c([nH]c3cnccc32)c1NC(=O)c1cccnc1C [MLN-120B]
Method in brief: as §1

Panobinostat = compound: Cc1[nH]c2ccccc2c1CCNCc1ccc(/C=C/C(=O)NO)cc1 [Panobinostat]
Method in brief: as §1

AZD7762 = compound: NC(=O)Nc1cc(-c2cccc(F)c2)sc1C(=O)N[C@H]1CCCNC1 [AZD7762]
Method in brief: as §1

Cladribine = compound: Nc1nc(Cl)nc2c1ncn2[C@H]1C[C@H](O)[C@@H](CO)O1 [Cladribine]
Method in brief: as §1

Vorinostat = compound: O=C(CCCCCCC(=O)Nc1ccccc1)NO [Vorinostat]
Method in brief: as §1

TMP269 = compound: O=C(NCC1(c2nc(-c3ccccc3)cs2)CCOCC1)c1cccc(-c2noc(C(F)(F)F)n2)c1 [TMP269]
Method in brief: as §1

Pentostatin = compound: OC[C@H]1O[C@@H](n2cnc3c2N=CNC[C@H]3O)C[C@@H]1O [Pentostatin]
Method in brief: as §1

Test System: primary DLBCL patient cells (S076)
- viability (Pralatrexate; 0.024 µM): 1.01
- viability (Pralatrexate; 0.12 µM): 0.756
- viability (Pralatrexate; 0.6 µM): 0.838
- viability (Pralatrexate; 3 µM): 0.978
- viability (Pralatrexate; 15 µM): 0.843
- viability (ONO-4059; 0.0016 µM): 1.03
- viability (ONO-4059; 0.008 µM): 1.04
- viability (ONO-4059; 0.04 µM): 1.08
- viability (ONO-4059; 0.2 µM): 0.992
- viability (ONO-4059; 1 µM): 0.929
- viability ([1]; 0.024 µM): 1.05
- viability ([1]; 0.12 µM): 0.81
- viability ([1]; 0.6 µM): 0.628
- viability ([1]; 3 µM): 0.313
- viability ([1]; 15 µM): 0.119
- viability (Vemurafenib; 0.024 µM): 0.8
- viability (Vemurafenib; 0.12 µM): 0.988
- viability (Vemurafenib; 0.6 µM): 0.83
- viability (Vemurafenib; 3 µM): 1.04
- viability (Vemurafenib; 15 µM): 1.05
- viability (ERK5-IN-1; 0.024 µM): 1.09
- viability (ERK5-IN-1; 0.12 µM): 1
- viability (ERK5-IN-1; 0.6 µM): 0.876
- viability (ERK5-IN-1; 3 µM): 0.755
- viability (ERK5-IN-1; 15 µM): 0.436
- viability (BI6727; 0.024 µM): 1.07
- viability (BI6727; 0.12 µM): 0.971
- viability (BI6727; 0.6 µM): 0.881
- viability (BI6727; 3 µM): 0.614
- viability (BI6727; 15 µM): 0.372
- viability (Vincristine; 0.016 µM): 0.726
- viability (Vincristine; 0.08 µM): 0.561
- viability (Vincristine; 0.4 µM): 0.519
- viability (Vincristine; 2 µM): 0.44
- viability (Vincristine; 10 µM): 0.363
- viability (Ribociclib; 0.024 µM): 1.25
- viability (Ribociclib; 0.12 µM): 1.2
- viability (Ribociclib; 0.6 µM): 1.11
- viability (Ribociclib; 3 µM): 0.986
- viability (Ribociclib; 15 µM): 0.586
- viability (Obatoclax mesylate; 0.024 µM): 0.922
- viability (Obatoclax mesylate; 0.12 µM): 1.14
- viability (Obatoclax mesylate; 0.6 µM): 0.746
- viability (Obatoclax mesylate; 3 µM): 0.541
- viability (Obatoclax mesylate; 15 µM): 0.173
- viability (MLN-120B; 0.024 µM): 1.07
- viability (MLN-120B; 0.12 µM): 1.07
- viability (MLN-120B; 0.6 µM): 1.05
- viability (MLN-120B; 3 µM): 0.997
- viability (MLN-120B; 15 µM): 0.861
- viability (Panobinostat; 0.00064 µM): 1.05
- viability (Panobinostat; 0.0032 µM): 0.78
- viability (Panobinostat; 0.016 µM): 0.285
- viability (Panobinostat; 0.08 µM): 0.203
- viability (Panobinostat; 0.4 µM): 0.169
- viability (AZD7762; 0.024 µM): 0.679
- viability (AZD7762; 0.12 µM): 0.69
- viability (AZD7762; 0.6 µM): 0.55
- viability (AZD7762; 3 µM): 0.481
- viability (AZD7762; 15 µM): 0.348
- viability (Cladribine; 0.024 µM): 0.475
- viability (Cladribine; 0.12 µM): 0.331
- viability (Cladribine; 0.6 µM): 0.138
- viability (Cladribine; 3 µM): 0.0919
- viability (Cladribine; 15 µM): 0.0759
- viability (Vorinostat; 0.016 µM): 1
- viability (Vorinostat; 0.08 µM): 0.884
- viability (Vorinostat; 0.4 µM): 0.734
- viability (Vorinostat; 2 µM): 0.417
- viability (Vorinostat; 10 µM): 0.198
- viability (TMP269; 0.024 µM): 1.17
- viability (TMP269; 0.12 µM): 1.07
- viability (TMP269; 0.6 µM): 1.15
- viability (TMP269; 3 µM): 0.94
- viability (TMP269; 15 µM): 0.959
- viability (Pentostatin; 0.03 µM): 1.04
- viability (Pentostatin; 0.15 µM): 0.808
- viability (Pentostatin; 0.75 µM): 0.824
- viability (Pentostatin; 3.75 µM): 0.6
- viability (Pentostatin; 18.76 µM): 0.618

Test System: primary T-NHL patient cells (S058)
- viability (Pralatrexate; 0.024 µM): 1.15
- viability (Pralatrexate; 0.12 µM): 0.861
- viability (Pralatrexate; 0.6 µM): 0.833
- viability (Pralatrexate; 3 µM): 0.902
- viability (Pralatrexate; 15 µM): 0.833
- viability (ONO-4059; 0.0016 µM): 1.06
- viability (ONO-4059; 0.008 µM): 1.25
- viability (ONO-4059; 0.04 µM): 1.03
- viability (ONO-4059; 0.2 µM): 1.16
- viability (ONO-4059; 1 µM): 1.07
- viability ([1]; 0.024 µM): 0.982
- viability ([1]; 0.12 µM): 0.854
- viability ([1]; 0.6 µM): 0.611
- viability ([1]; 3 µM): 0.355
- viability ([1]; 15 µM): 0.258
- viability (Vemurafenib; 0.024 µM): 0.878
- viability (Vemurafenib; 0.12 µM): 0.957
- viability (Vemurafenib; 0.6 µM): 0.911
- viability (Vemurafenib; 3 µM): 0.982
- viability (Vemurafenib; 15 µM): 0.96
- viability (ERK5-IN-1; 0.024 µM): 1.12
- viability (ERK5-IN-1; 0.12 µM): 1.15
- viability (ERK5-IN-1; 0.6 µM): 0.851
- viability (ERK5-IN-1; 3 µM): 0.59
- viability (ERK5-IN-1; 15 µM): 0.403
- viability (BI6727; 0.024 µM): 0.939
- viability (BI6727; 0.12 µM): 0.885
- viability (BI6727; 0.6 µM): 0.757
- viability (BI6727; 3 µM): 0.506
- viability (BI6727; 15 µM): 0.3
- viability (Vincristine; 0.016 µM): 0.646
- viability (Vincristine; 0.08 µM): 0.417
- viability (Vincristine; 0.4 µM): 0.364
- viability (Vincristine; 2 µM): 0.302
- viability (Vincristine; 10 µM): 0.246
- viability (Ribociclib; 0.024 µM): 1.05
- viability (Ribociclib; 0.12 µM): 1.14
- viability (Ribociclib; 0.6 µM): 1.07
- viability (Ribociclib; 3 µM): 1.01
- viability (Ribociclib; 15 µM): 1.06
- viability (Obatoclax mesylate; 0.024 µM): 0.985
- viability (Obatoclax mesylate; 0.12 µM): 0.916
- viability (Obatoclax mesylate; 0.6 µM): 0.783
- viability (Obatoclax mesylate; 3 µM): 0.533
- viability (Obatoclax mesylate; 15 µM): 0.227
- viability (MLN-120B; 0.024 µM): 0.984
- viability (MLN-120B; 0.12 µM): 1.15
- viability (MLN-120B; 0.6 µM): 1.05
- viability (MLN-120B; 3 µM): 1.16
- viability (MLN-120B; 15 µM): 0.908
- viability (Panobinostat; 0.00064 µM): 1.24
- viability (Panobinostat; 0.0032 µM): 0.886
- viability (Panobinostat; 0.016 µM): 0.292
- viability (Panobinostat; 0.08 µM): 0.302
- viability (Panobinostat; 0.4 µM): 0.243
- viability (AZD7762; 0.024 µM): 1.05
- viability (AZD7762; 0.12 µM): 1.16
- viability (AZD7762; 0.6 µM): 0.936
- viability (AZD7762; 3 µM): 1.02
- viability (AZD7762; 15 µM): 0.719
- viability (Cladribine; 0.024 µM): 0.857
- viability (Cladribine; 0.12 µM): 0.441
- viability (Cladribine; 0.6 µM): 0.147
- viability (Cladribine; 3 µM): 0.112
- viability (Cladribine; 15 µM): 0.0704
- viability (Vorinostat; 0.016 µM): 1.16
- viability (Vorinostat; 0.08 µM): 0.894
- viability (Vorinostat; 0.4 µM): 0.789
- viability (Vorinostat; 2 µM): 0.381
- viability (Vorinostat; 10 µM): 0.274
- viability (TMP269; 0.024 µM): 1.05
- viability (TMP269; 0.12 µM): 0.994
- viability (TMP269; 0.6 µM): 1.01
- viability (TMP269; 3 µM): 0.892
- viability (TMP269; 15 µM): 0.836
- viability (Pentostatin; 0.03 µM): 1.1
- viability (Pentostatin; 0.15 µM): 1.06
- viability (Pentostatin; 0.75 µM): 0.988
- viability (Pentostatin; 3.75 µM): 0.816
- viability (Pentostatin; 18.76 µM): 0.858
